The test system of data set [1] is Enterococcus faecium (VRE). Briefly: microbe, parasite or virus in culture. It counts as cell-based. The procedure:
(§1) In example experiments miconazole nitrate, econazole nitrate and clotrimazole were dissolved in DMSO. Colistin, D-cycloserine, fosfomycin and polymixin B were dissolved in water. Nisin was suspended at 10 mg/mL in 0.02 M HCl, and the supernatant fraction following centrifugation at 10,000 g for 10 mins was used in the following experiments.
(§2) Other solvents that may be used include caster oil, pyridine, and 0.9% saline. For IV administration agents may be solubilised in polyethoxylated caster oil, or cyclodextrins such as sulfobutylether7-βcyclodextrin or hydroxypropyl-β-cyclodextrin and lactic acid. Minimum inhibitory concentrations (MICs) of a range of clinical and control bacterial organisms were measured according to BSAC (British Society for Antimicrobial Chemotherapy) guidelines (Andrews 2001), for single agents. The method of determining MICs of imidazole with colistin, D-cycloserine, fosfomycin, polymixin B, or nisin is described briefly as follows. MICs were measured by agar dilution. Kill curves were performed in accordance with the methods of Garrison and Nuemiller, 2007. Briefly kill profiles were generated by logarithmically plotting mean CFU/mL data over time. Total logarithmic reductions in bacterial counts were determined by subtracting 24 h CFU/mL values from starting inocula.
(§3) Stock solutions were prepared at concentrations of 1000 mg/L and 100 mg/L. To determine the MIC of miconazole, the appropriate amount of each stock solution were added to separate Petri dishes give a range of final concentrations (after the addition of 20 mL molten agar): from 0.12 to 32 mg/L. To determine the MICs of miconazole with the specific agent active on a bacterial cell surface, these concentrations of miconazole were used in addition to a fixed sub-inhibitory amount of the agent active on a bacterial cell surface. […] Volumes (20 mL) of cooled molten IST agar (oxoid) was added to each Petri dish and mixed by swirling. After drying, the plates were stored at 4° C. and protected from light. Plates were used on the day of preparation.
(§4) The test organisms were grown overnight in 5 mL IST broth. Using a dilution in 0.9% saline of 1:100, the appropriate agar plates were inoculated using a multipoint inoculator.
(§5) Agar plates and microtitre plates were incubated at 37° C. in air for 18-20 hours.
(§6) The MIC is the minimum amount of an antibiotic at which there is no visible growth of bacteria. Tiny single colonies or faint hazes were not counted as growth. Synergy was reported if the inhibitory effect of the drugs in combination were greater than the sum of the inhibitory effects of each drug singly. The concentration of miconazole, with or without the cell membrane or cell wall active agent, capable of inhibiting the growth of 50% and 90% of the strains tested is reported as the MIC50 and MIC90 respectively. The range of MICs for each group of bacterial strains is also reported.

Data set [2] relates to VISA. Briefly: microbe, parasite or virus in culture. It counts as cell-based. The conditions noted are these: Staphylococcus aureus. On the procedure: as §1, §2, §3, §4, §5, §6
Data set [3] concerns Staphylococcus epidermidis. Description: MIC by agar dilution, Staphylococcus epidermidis. It counts as cell-based. On the procedure: as §2, §3
(§7) The test organisms were grown overnight in 5 mL IST broth. Using a dilution in 0.9% saline of 1:100, the appropriate agar plates were inoculated using a multipoint inoculator. […]
(§8) The MIC is the minimum amount of an antibiotic at which there is no visible growth of bacteria. Tiny single colonies or faint hazes were not counted as growth. […]
On the technique in general: In agar dilution, organisms are placed on agar that contains the substance at set levels.

The test system of data set [4] is Enterococcus faecalis (VRE). Description: MIC by agar dilution, Enterococcus faecalis (VRE). It counts as cell-based. On the procedure: as §2, §3, §7, §8
Data set [5] relates to Escherichia coli. Description: MIC by agar dilution, Escherichia coli. Format: cell-based. On the procedure: as §2, §3, §7, §8
Data set [6] deals with Pseudomonas aeruginosa. Description: MIC by agar dilution, Pseudomonas aeruginosa. Format: cell-based. On the procedure: as §2, §3, §7, §8
Data set [7] relates to MRSA AND VRE. Briefly: MIC by agar dilution, MIC50/MIC90/range over MRSA and VRE strain panel. Format: cell-based, Staphylococcus aureus; Enterococci. The procedure: In example experiments miconazole nitrate, econazole nitrate and clotrimazole were dissolved in DMSO. Colistin, D-cycloserine, fosfomycin and polymixin B were dissolved in water.
as §2, with “The method of determining MICs of imidazole with colistin, D-cycloserine, fosfomycin, polymixin B, or nisin is described briefly as follows.” left out
as §3, §7
The MIC is the minimum amount of an antibiotic at which there is no visible growth of bacteria. Tiny single colonies or faint hazes were not counted as growth. […] The concentration of miconazole, with or without the cell membrane or cell wall active agent, capable of inhibiting the growth of 50% and 90% of the strains tested is reported as the MIC50 and MIC90 respectively. The range of MICs for each group of bacterial strains is also reported.

The conditions of data set [8]: in vivo, cited from earlier work.
The mark [9] stands for this setting: ATCC 4147 / VRE, Table 2, strain E15 VanA ATCC 4147, read-out: MIC.
Where [10] appears, read: NCTC 7171 / VRE, Table 2, strain NCTC 7171, read-out: MIC.
Where [11] appears, read: VRE, Table 2, strain E19 UAA/522 VanB, read-out: MIC.
Where [12] appears, read: VRE, Table 2, strain VanR B145344C LFE, read-out: MIC.
[13] abbreviates: Table 2, strain USA/VISA 5827, read-out: MIC.
Setting [14] is: Table 2, strain USA/VISA 5836, read-out: MIC.
The mark [15] stands for this setting: Table 2, strain VISA 3900 UK, read-out: MIC.

Read-outs that look alike come from different tables or passages of the source.

Turning to `CC(=O)N1CCN(c2ccc(OCC3COC(Cn4ccnc4)(c4ccc(Cl)cc4Cl)O3)cc2)CC1` (stereo not drawn) [Ketoconazole], the MIC in data set [1] (setting [9]) was 16 µg/mL; in data set [1] (setting [10]), 128 µg/mL; in data set [1] (setting [11]), 128 µg/mL; in data set [1] (setting [12]) it was 128 µg/mL; in data set [2] (setting [13]), 64 µg/mL; in data set [2] (setting [14]) it was 64 µg/mL. The MIC was 64 µg/mL in data set [2] (setting [15]); 64 µg/mL in data set [3] (ATCC1228); over 256 µg/mL in data set [4]; over 256 µg/mL in data set [5] (NCTC10418); over 256 µg/mL in data set [6] (NCTC10662).
Take `N[C@@H]1CONC1=O` [D-cycloserine]: the “inhibitory effect on the growth of the bacterial strains tested” value (“inhibitory effect on the growth” for short) in data set [7] (D-cycloserine alone at 10 mg/L) is reported as “no inhibitory effect”.
On to colistin, for which the “inhibitory effect on the growth” value in data set [7] (colistin alone at 5 mg/L) is recorded as “no inhibitory effect”.
For `OC(Cn1cncn1)(Cn1cncn1)c1ccc(F)cc1F` [Fluconazole], the MIC was over 128 µg/mL in data set [1] (ATCC 4147 / VRE, Table 2, strain E15 VanA ATCC 4147); over 128 µg/mL in data set [1] (NCTC 7171 / VRE, Table 2, strain NCTC 7171); over 128 µg/mL in data set [1] (VRE, Table 2, strain E19 UAA/522 VanB); over 128 µg/mL in data set [1] (VRE, Table 2, strain VanR B145344C LFE); over 128 µg/mL in data set [2] (Table 2, strain USA/VISA 5827); over 128 µg/mL in data set [2] (Table 2, strain USA/VISA 5836). The MIC is over 128 µg/mL in data set [2] (Table 2, strain VISA 3900 UK); over 128 µg/mL in data set [3] (ATCC1228); over 128 µg/mL in data set [4]; over 128 µg/mL in data set [5] (NCTC10418); over 128 µg/mL in data set [6] (NCTC10662).
Regarding `Clc1ccccc1C(c1ccccc1)(c1ccccc1)n1ccnc1` [Clotrimazole, 1-[(2-Chlorophenyl)diphenylmethyl]-1H-imidazole], the half-life result in data set [8] (human, po) is “around 3 hours”. Also, in data set [8], the “absorption following oral administration” value is “well absorbed”.
For polymixin B, in data set [7] (polymixin B alone at 20 mg/L), the “inhibitory effect on the growth” value is on record as “no inhibitory effect”.
As to `C[C@@H]1O[C@@H]1P(=O)(O)O` [fosfomycin], in data set [7] (fosfomycin alone at 5 mg/L), the “inhibitory effect on the growth” value is “no inhibitory effect”.
On to `c1ccc(-c2ccc(C(c3ccccc3)n3ccnc3)cc2)cc1` (stereo not drawn) [Bifonazole], for which the MIC in data set [1] (setting [9]), in data set [1] (setting [10]), in data set [1] (setting [11]), in data set [1] (setting [12]), in data set [2] (setting [13]) and in data set [2] (setting [14]) was over 128 µg/mL in each case. In addition, the MIC was over 128 µg/mL in data set [2] (setting [15]); over 128 µg/mL in data set [3] (ATCC1228, Table 2, strain ATCC 1228, read-out: MIC); over 128 µg/mL in data set [4] (Table 2, strain E8 VanA, read-out: MIC); over 128 µg/mL in data set [5] (NCTC10418, Table 2, strain NCTC 10418, read-out: MIC); over 128 µg/mL in data set [6] (NCTC10662, Table 2, strain NCTC 10662, read-out: MIC).

Values taken from patent US8614179B2, “Antibacterial combination therapy for the treatment of gram positive bacterial infections” (E-Therapeutics PLC, priority 2008, dated 2013).
